Test results taken from the kinase profiling compilation of Christmann-Franck et al. (2016).

System: ABL1 (human), P00519 [Y253F]
Assay: KINOMEscan competition binding
Details: compound 10.0 µM

Structure (SMILES)	kinase still bound, per cent of control [%]
CCN1CCN(Cc2ccc(NC(=O)c3ccc(C)c(/C=C/c4cnc(Nc5cc(N6CCNCC6)nc(C)n5)cn4)c3)cc2C(F)(F)F)CC1	0.1
COc1cc(N2CCC(N3CCN(C)CC3)CC2)ccc1Nc1ncc(Cl)c(Nc2ccccc2S(=O)(=O)C(C)C)n1	4.2
CCOc1cc(N2CCC(N3CCCCC3)CC2)ccc1Nc1nc(Nc2ccccc2S(=O)(=O)C(C)C)c2cn[nH]c2n1	61
CCN1CCN(Cc2ccc(NC(=O)c3ccc(C)c(Oc4ccnc5[nH]ccc45)c3)cc2C(F)(F)F)CC1	1.1

Biological target: ALK (human) (UniProt Q9UM73)
Assay: KINOMEscan competition binding
Details: compound 10.0 µM

Structure (SMILES)	kinase still bound, per cent of control [%]
CCN1CCN(Cc2ccc(NC(=O)c3ccc(C)c(/C=C/c4cnc(Nc5cc(N6CCNCC6)nc(C)n5)cn4)c3)cc2C(F)(F)F)CC1	100
CCOc1cc(N2CCC(N3CCCCC3)CC2)ccc1Nc1nc(Nc2ccccc2S(=O)(=O)C(C)C)c2cn[nH]c2n1	34
CCN1CCN(Cc2ccc(NC(=O)c3ccc(C)c(Oc4ccnc5[nH]ccc45)c3)cc2C(F)(F)F)CC1	0.55

Biological target: CAMK2A (human) (UniProt Q9UQM7)
Sequence (Q9UQM7 whole entry, looked up): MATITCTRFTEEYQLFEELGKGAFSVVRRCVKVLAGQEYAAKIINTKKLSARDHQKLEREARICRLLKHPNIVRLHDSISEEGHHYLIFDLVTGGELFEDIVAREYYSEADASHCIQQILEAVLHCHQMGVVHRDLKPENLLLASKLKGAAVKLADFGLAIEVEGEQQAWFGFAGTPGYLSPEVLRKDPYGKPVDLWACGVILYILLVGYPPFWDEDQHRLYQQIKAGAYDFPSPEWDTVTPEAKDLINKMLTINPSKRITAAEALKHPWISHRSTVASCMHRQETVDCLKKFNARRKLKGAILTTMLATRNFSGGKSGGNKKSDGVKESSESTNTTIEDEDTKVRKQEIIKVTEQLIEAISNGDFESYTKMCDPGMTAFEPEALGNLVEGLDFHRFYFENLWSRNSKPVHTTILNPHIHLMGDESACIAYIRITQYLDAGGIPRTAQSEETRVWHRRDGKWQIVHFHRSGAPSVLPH
Assay: KINOMEscan competition binding
Details: compound 10.0 µM

Structure (SMILES)	kinase still bound, per cent of control [%]
CCN1CCN(Cc2ccc(NC(=O)c3ccc(C)c(/C=C/c4cnc(Nc5cc(N6CCNCC6)nc(C)n5)cn4)c3)cc2C(F)(F)F)CC1	100
COc1cc(N2CCC(N3CCN(C)CC3)CC2)ccc1Nc1ncc(Cl)c(Nc2ccccc2S(=O)(=O)C(C)C)n1	1.2
CCOc1cc(N2CCC(N3CCCCC3)CC2)ccc1Nc1nc(Nc2ccccc2S(=O)(=O)C(C)C)c2cn[nH]c2n1	34

Biological target: CAMKK1 (human) (UniProt Q8N5S9)
Assay: KINOMEscan competition binding
Details: compound 10.0 µM

Structure (SMILES)	kinase still bound, per cent of control [%]
CCN1CCN(Cc2ccc(NC(=O)c3ccc(C)c(/C=C/c4cnc(Nc5cc(N6CCNCC6)nc(C)n5)cn4)c3)cc2C(F)(F)F)CC1	98
COc1cc(N2CCC(N3CCN(C)CC3)CC2)ccc1Nc1ncc(Cl)c(Nc2ccccc2S(=O)(=O)C(C)C)n1	0.2
CCOc1cc(N2CCC(N3CCCCC3)CC2)ccc1Nc1nc(Nc2ccccc2S(=O)(=O)C(C)C)c2cn[nH]c2n1	46

Biological target: CDK3 (human) (UniProt Q00526)
Assay: KINOMEscan competition binding
Details: compound 10.0 µM

Structure (SMILES)	kinase still bound, per cent of control [%]
CCN1CCN(Cc2ccc(NC(=O)c3ccc(C)c(/C=C/c4cnc(Nc5cc(N6CCNCC6)nc(C)n5)cn4)c3)cc2C(F)(F)F)CC1	100
COc1cc(N2CCC(N3CCN(C)CC3)CC2)ccc1Nc1ncc(Cl)c(Nc2ccccc2S(=O)(=O)C(C)C)n1	40
CCOc1cc(N2CCC(N3CCCCC3)CC2)ccc1Nc1nc(Nc2ccccc2S(=O)(=O)C(C)C)c2cn[nH]c2n1	85

Biological target: CDKL2 (human) (UniProt Q92772)
Assay: KINOMEscan competition binding
Details: compound 10.0 µM

Structure (SMILES)	kinase still bound, per cent of control [%]
CCN1CCN(Cc2ccc(NC(=O)c3ccc(C)c(/C=C/c4cnc(Nc5cc(N6CCNCC6)nc(C)n5)cn4)c3)cc2C(F)(F)F)CC1	0.15
COc1cc(N2CCC(N3CCN(C)CC3)CC2)ccc1Nc1ncc(Cl)c(Nc2ccccc2S(=O)(=O)C(C)C)n1	40
CCOc1cc(N2CCC(N3CCCCC3)CC2)ccc1Nc1nc(Nc2ccccc2S(=O)(=O)C(C)C)c2cn[nH]c2n1	91
CCN1CCN(Cc2ccc(NC(=O)c3ccc(C)c(Oc4ccnc5[nH]ccc45)c3)cc2C(F)(F)F)CC1	0.9

Biological target: CLK1 (human) (UniProt P49759)
Sequence (P49759 whole entry, looked up): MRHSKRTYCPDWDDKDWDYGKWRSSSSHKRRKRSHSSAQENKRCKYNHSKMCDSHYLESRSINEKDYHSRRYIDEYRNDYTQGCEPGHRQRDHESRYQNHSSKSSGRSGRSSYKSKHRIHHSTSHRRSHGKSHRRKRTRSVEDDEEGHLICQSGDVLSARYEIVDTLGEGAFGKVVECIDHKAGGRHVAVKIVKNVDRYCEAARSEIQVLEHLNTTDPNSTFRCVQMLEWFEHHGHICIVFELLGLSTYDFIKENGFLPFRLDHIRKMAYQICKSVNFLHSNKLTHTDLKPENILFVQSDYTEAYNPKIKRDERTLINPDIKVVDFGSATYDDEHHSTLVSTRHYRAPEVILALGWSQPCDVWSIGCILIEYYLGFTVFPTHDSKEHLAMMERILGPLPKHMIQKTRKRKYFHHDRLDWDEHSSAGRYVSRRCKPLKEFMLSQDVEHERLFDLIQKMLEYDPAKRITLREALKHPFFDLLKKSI
Assay: KINOMEscan competition binding
Details: compound 10.0 µM

Structure (SMILES)	kinase still bound, per cent of control [%]
CCN1CCN(Cc2ccc(NC(=O)c3ccc(C)c(/C=C/c4cnc(Nc5cc(N6CCNCC6)nc(C)n5)cn4)c3)cc2C(F)(F)F)CC1	29
COc1cc(N2CCC(N3CCN(C)CC3)CC2)ccc1Nc1ncc(Cl)c(Nc2ccccc2S(=O)(=O)C(C)C)n1	0.4
CCOc1cc(N2CCC(N3CCCCC3)CC2)ccc1Nc1nc(Nc2ccccc2S(=O)(=O)C(C)C)c2cn[nH]c2n1	0.4

Biological target: CLK4 (human) (UniProt Q9HAZ1)
Assay: KINOMEscan competition binding
Details: compound 10.0 µM

Structure (SMILES)	kinase still bound, per cent of control [%]
CCN1CCN(Cc2ccc(NC(=O)c3ccc(C)c(/C=C/c4cnc(Nc5cc(N6CCNCC6)nc(C)n5)cn4)c3)cc2C(F)(F)F)CC1	31
COc1cc(N2CCC(N3CCN(C)CC3)CC2)ccc1Nc1ncc(Cl)c(Nc2ccccc2S(=O)(=O)C(C)C)n1	1.2
CCOc1cc(N2CCC(N3CCCCC3)CC2)ccc1Nc1nc(Nc2ccccc2S(=O)(=O)C(C)C)c2cn[nH]c2n1	5.2

Biological target: CSNK1G1 (human) (UniProt Q9HCP0)
Sequence (Q9HCP0 whole entry, looked up): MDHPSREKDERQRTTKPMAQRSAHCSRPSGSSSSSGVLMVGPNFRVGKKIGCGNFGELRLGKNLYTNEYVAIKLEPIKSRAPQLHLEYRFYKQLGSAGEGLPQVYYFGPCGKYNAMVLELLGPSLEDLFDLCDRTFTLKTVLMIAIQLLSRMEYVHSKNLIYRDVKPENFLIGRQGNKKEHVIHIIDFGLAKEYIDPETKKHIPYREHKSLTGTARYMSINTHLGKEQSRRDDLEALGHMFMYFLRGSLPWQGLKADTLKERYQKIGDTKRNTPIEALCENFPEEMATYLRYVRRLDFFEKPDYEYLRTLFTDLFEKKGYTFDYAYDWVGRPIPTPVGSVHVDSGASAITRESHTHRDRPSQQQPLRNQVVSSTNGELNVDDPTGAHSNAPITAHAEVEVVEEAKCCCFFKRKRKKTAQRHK
Assay: KINOMEscan competition binding
Details: compound 10.0 µM

Structure (SMILES)	kinase still bound, per cent of control [%]
CCN1CCN(Cc2ccc(NC(=O)c3ccc(C)c(/C=C/c4cnc(Nc5cc(N6CCNCC6)nc(C)n5)cn4)c3)cc2C(F)(F)F)CC1	100
COc1cc(N2CCC(N3CCN(C)CC3)CC2)ccc1Nc1ncc(Cl)c(Nc2ccccc2S(=O)(=O)C(C)C)n1	40
CCOc1cc(N2CCC(N3CCCCC3)CC2)ccc1Nc1nc(Nc2ccccc2S(=O)(=O)C(C)C)c2cn[nH]c2n1	71

Biological target: CSNK2A1 (human) (UniProt P68400)
Sequence (P68400 whole entry, looked up): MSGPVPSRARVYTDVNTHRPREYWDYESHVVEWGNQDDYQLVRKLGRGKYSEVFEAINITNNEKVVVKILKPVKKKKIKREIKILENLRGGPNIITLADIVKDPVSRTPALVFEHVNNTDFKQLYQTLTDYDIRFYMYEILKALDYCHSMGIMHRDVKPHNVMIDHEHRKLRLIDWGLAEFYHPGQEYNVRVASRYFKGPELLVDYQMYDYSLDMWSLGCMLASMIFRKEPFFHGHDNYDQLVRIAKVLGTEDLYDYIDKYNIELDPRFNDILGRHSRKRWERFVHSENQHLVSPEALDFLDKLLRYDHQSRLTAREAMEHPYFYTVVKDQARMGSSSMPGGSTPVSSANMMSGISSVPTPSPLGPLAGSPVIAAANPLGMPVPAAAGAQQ
Assay: KINOMEscan competition binding
Details: compound 10.0 µM

Structure (SMILES)	kinase still bound, per cent of control [%]
CCN1CCN(Cc2ccc(NC(=O)c3ccc(C)c(/C=C/c4cnc(Nc5cc(N6CCNCC6)nc(C)n5)cn4)c3)cc2C(F)(F)F)CC1	89
COc1cc(N2CCC(N3CCN(C)CC3)CC2)ccc1Nc1ncc(Cl)c(Nc2ccccc2S(=O)(=O)C(C)C)n1	27
CCOc1cc(N2CCC(N3CCCCC3)CC2)ccc1Nc1nc(Nc2ccccc2S(=O)(=O)C(C)C)c2cn[nH]c2n1	100

System: EGFR (human), P00533 [A750P; 747-749 del]
Assay: KINOMEscan competition binding
Details: compound 10.0 µM

Structure (SMILES)	kinase still bound, per cent of control [%]
CCN1CCN(Cc2ccc(NC(=O)c3ccc(C)c(/C=C/c4cnc(Nc5cc(N6CCNCC6)nc(C)n5)cn4)c3)cc2C(F)(F)F)CC1	2.9
COc1cc(N2CCC(N3CCN(C)CC3)CC2)ccc1Nc1ncc(Cl)c(Nc2ccccc2S(=O)(=O)C(C)C)n1	0
CCOc1cc(N2CCC(N3CCCCC3)CC2)ccc1Nc1nc(Nc2ccccc2S(=O)(=O)C(C)C)c2cn[nH]c2n1	10
CCN1CCN(Cc2ccc(NC(=O)c3ccc(C)c(Oc4ccnc5[nH]ccc45)c3)cc2C(F)(F)F)CC1	1.5

Biological target: EPHA2 (human) (UniProt P29317)
Assay: KINOMEscan competition binding
Details: compound 10.0 µM

Structure (SMILES)	kinase still bound, per cent of control [%]
CCN1CCN(Cc2ccc(NC(=O)c3ccc(C)c(/C=C/c4cnc(Nc5cc(N6CCNCC6)nc(C)n5)cn4)c3)cc2C(F)(F)F)CC1	5.4
COc1cc(N2CCC(N3CCN(C)CC3)CC2)ccc1Nc1ncc(Cl)c(Nc2ccccc2S(=O)(=O)C(C)C)n1	27
CCOc1cc(N2CCC(N3CCCCC3)CC2)ccc1Nc1nc(Nc2ccccc2S(=O)(=O)C(C)C)c2cn[nH]c2n1	100
CCN1CCN(Cc2ccc(NC(=O)c3ccc(C)c(Oc4ccnc5[nH]ccc45)c3)cc2C(F)(F)F)CC1	3.1

Biological target: EPHA8 (human) (UniProt P29322)
Sequence (P29322 whole entry, looked up): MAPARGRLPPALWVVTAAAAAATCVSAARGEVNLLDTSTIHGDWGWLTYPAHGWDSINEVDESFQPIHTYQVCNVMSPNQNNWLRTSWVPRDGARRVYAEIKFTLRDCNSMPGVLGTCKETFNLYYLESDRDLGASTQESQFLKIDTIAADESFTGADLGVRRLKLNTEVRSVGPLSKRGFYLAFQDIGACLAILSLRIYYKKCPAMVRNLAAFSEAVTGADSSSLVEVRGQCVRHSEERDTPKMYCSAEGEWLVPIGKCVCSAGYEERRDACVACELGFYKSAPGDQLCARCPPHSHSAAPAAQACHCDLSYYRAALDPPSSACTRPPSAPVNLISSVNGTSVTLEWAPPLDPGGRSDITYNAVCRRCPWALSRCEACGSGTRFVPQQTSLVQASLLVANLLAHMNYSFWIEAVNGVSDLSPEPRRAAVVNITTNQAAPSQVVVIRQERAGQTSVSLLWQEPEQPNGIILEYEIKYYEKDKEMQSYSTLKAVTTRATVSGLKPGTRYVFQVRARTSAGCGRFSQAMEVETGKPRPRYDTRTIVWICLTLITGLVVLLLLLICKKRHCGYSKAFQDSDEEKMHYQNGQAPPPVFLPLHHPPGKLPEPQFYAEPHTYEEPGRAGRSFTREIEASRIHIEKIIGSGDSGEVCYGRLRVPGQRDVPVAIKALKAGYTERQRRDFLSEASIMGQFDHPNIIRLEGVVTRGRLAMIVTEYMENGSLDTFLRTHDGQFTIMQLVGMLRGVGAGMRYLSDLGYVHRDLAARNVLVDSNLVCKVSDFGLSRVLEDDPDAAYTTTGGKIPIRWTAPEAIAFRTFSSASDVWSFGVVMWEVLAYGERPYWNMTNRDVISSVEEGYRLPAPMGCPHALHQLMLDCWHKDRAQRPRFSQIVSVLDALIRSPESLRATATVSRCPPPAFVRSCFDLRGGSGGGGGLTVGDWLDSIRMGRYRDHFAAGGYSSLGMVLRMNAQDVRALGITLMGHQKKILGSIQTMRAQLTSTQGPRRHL
Assay: KINOMEscan competition binding
Details: compound 10.0 µM

Structure (SMILES)	kinase still bound, per cent of control [%]
CCN1CCN(Cc2ccc(NC(=O)c3ccc(C)c(/C=C/c4cnc(Nc5cc(N6CCNCC6)nc(C)n5)cn4)c3)cc2C(F)(F)F)CC1	0.35
COc1cc(N2CCC(N3CCN(C)CC3)CC2)ccc1Nc1ncc(Cl)c(Nc2ccccc2S(=O)(=O)C(C)C)n1	40
CCOc1cc(N2CCC(N3CCCCC3)CC2)ccc1Nc1nc(Nc2ccccc2S(=O)(=O)C(C)C)c2cn[nH]c2n1	100
CCN1CCN(Cc2ccc(NC(=O)c3ccc(C)c(Oc4ccnc5[nH]ccc45)c3)cc2C(F)(F)F)CC1	0.1

Biological target: FGFR4 (human) (UniProt P22455)
Assay: KINOMEscan competition binding
Details: compound 10.0 µM

Structure (SMILES)	kinase still bound, per cent of control [%]
CCN1CCN(Cc2ccc(NC(=O)c3ccc(C)c(/C=C/c4cnc(Nc5cc(N6CCNCC6)nc(C)n5)cn4)c3)cc2C(F)(F)F)CC1	34
CCOc1cc(N2CCC(N3CCCCC3)CC2)ccc1Nc1nc(Nc2ccccc2S(=O)(=O)C(C)C)c2cn[nH]c2n1	100
CCN1CCN(Cc2ccc(NC(=O)c3ccc(C)c(Oc4ccnc5[nH]ccc45)c3)cc2C(F)(F)F)CC1	0.45

System: FLT3 (human), P36888 [N841I]
Assay: KINOMEscan competition binding
Details: compound 10.0 µM

Structure (SMILES)	kinase still bound, per cent of control [%]
CCN1CCN(Cc2ccc(NC(=O)c3ccc(C)c(/C=C/c4cnc(Nc5cc(N6CCNCC6)nc(C)n5)cn4)c3)cc2C(F)(F)F)CC1	0
CCOc1cc(N2CCC(N3CCCCC3)CC2)ccc1Nc1nc(Nc2ccccc2S(=O)(=O)C(C)C)c2cn[nH]c2n1	100
CCN1CCN(Cc2ccc(NC(=O)c3ccc(C)c(Oc4ccnc5[nH]ccc45)c3)cc2C(F)(F)F)CC1	0

Biological target: FLT4 (human) (UniProt P35916)
Sequence (P35916 whole entry, looked up): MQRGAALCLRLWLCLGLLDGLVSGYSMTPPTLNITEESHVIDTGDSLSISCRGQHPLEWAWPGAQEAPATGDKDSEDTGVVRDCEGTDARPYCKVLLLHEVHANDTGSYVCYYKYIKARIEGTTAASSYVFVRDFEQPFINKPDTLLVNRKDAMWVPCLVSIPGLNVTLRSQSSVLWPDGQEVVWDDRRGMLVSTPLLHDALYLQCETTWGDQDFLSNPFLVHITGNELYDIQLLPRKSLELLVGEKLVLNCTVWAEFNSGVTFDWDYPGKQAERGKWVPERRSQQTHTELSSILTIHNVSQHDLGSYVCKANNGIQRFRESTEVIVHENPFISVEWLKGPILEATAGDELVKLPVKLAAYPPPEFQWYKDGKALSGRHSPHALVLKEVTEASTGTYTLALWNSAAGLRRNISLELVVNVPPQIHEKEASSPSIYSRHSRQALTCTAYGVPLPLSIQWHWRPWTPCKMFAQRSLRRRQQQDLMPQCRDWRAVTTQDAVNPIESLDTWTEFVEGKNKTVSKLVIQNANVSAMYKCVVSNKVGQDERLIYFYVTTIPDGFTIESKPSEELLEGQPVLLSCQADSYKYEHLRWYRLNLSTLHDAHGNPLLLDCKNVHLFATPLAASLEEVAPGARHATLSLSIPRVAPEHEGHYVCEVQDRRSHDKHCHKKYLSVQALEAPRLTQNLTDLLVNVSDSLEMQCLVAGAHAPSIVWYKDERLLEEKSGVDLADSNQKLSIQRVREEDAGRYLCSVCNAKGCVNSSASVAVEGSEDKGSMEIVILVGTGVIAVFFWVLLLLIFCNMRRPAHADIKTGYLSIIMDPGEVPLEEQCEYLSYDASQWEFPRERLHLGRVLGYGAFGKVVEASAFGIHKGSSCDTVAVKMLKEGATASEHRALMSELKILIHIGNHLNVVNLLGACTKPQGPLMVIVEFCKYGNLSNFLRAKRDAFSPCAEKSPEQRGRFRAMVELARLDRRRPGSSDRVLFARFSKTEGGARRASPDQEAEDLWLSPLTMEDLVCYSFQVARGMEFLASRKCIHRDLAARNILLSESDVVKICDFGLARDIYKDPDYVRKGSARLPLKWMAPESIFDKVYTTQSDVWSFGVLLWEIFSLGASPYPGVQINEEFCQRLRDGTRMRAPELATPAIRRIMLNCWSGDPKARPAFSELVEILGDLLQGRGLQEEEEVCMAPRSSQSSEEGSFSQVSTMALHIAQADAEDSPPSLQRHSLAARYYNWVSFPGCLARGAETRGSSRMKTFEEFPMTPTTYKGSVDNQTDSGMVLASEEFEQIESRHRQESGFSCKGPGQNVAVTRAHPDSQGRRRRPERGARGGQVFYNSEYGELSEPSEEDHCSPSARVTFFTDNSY
Assay: KINOMEscan competition binding
Details: compound 10.0 µM

Structure (SMILES)	kinase still bound, per cent of control [%]
CCN1CCN(Cc2ccc(NC(=O)c3ccc(C)c(/C=C/c4cnc(Nc5cc(N6CCNCC6)nc(C)n5)cn4)c3)cc2C(F)(F)F)CC1	26
COc1cc(N2CCC(N3CCN(C)CC3)CC2)ccc1Nc1ncc(Cl)c(Nc2ccccc2S(=O)(=O)C(C)C)n1	0.05
CCOc1cc(N2CCC(N3CCCCC3)CC2)ccc1Nc1nc(Nc2ccccc2S(=O)(=O)C(C)C)c2cn[nH]c2n1	100
CCN1CCN(Cc2ccc(NC(=O)c3ccc(C)c(Oc4ccnc5[nH]ccc45)c3)cc2C(F)(F)F)CC1	0.2

Biological target: IKBKE (human) (UniProt Q14164)
Sequence (Q14164 whole entry, looked up): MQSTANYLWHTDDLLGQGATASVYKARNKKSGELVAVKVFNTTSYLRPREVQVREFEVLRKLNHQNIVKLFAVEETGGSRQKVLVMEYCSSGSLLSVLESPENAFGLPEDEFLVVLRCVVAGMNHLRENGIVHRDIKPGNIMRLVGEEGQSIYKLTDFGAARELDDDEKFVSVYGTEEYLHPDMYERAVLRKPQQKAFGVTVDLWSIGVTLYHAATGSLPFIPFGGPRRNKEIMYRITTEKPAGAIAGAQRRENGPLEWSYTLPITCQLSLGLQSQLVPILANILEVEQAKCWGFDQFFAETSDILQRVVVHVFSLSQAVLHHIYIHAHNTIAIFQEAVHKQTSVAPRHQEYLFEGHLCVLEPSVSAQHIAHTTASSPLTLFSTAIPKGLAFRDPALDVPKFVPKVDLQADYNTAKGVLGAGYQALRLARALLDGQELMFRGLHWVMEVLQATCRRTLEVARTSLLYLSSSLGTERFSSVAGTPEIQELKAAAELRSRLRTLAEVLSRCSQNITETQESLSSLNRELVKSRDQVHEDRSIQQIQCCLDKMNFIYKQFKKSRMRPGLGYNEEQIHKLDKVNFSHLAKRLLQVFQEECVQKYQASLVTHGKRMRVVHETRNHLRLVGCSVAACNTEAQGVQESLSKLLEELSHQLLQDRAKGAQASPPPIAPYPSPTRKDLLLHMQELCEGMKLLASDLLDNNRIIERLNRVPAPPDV
Assay: KINOMEscan competition binding
Details: compound 10.0 µM

Structure (SMILES)	kinase still bound, per cent of control [%]
CCN1CCN(Cc2ccc(NC(=O)c3ccc(C)c(/C=C/c4cnc(Nc5cc(N6CCNCC6)nc(C)n5)cn4)c3)cc2C(F)(F)F)CC1	90
COc1cc(N2CCC(N3CCN(C)CC3)CC2)ccc1Nc1ncc(Cl)c(Nc2ccccc2S(=O)(=O)C(C)C)n1	25
CCOc1cc(N2CCC(N3CCCCC3)CC2)ccc1Nc1nc(Nc2ccccc2S(=O)(=O)C(C)C)c2cn[nH]c2n1	100

Biological target: JAK1 JH2 pseudokinase (human) (UniProt P23458)
Assay: KINOMEscan competition binding
Details: compound 10.0 µM

Structure (SMILES)	kinase still bound, per cent of control [%]
CCN1CCN(Cc2ccc(NC(=O)c3ccc(C)c(/C=C/c4cnc(Nc5cc(N6CCNCC6)nc(C)n5)cn4)c3)cc2C(F)(F)F)CC1	94
COc1cc(N2CCC(N3CCN(C)CC3)CC2)ccc1Nc1ncc(Cl)c(Nc2ccccc2S(=O)(=O)C(C)C)n1	4.2
CCOc1cc(N2CCC(N3CCCCC3)CC2)ccc1Nc1nc(Nc2ccccc2S(=O)(=O)C(C)C)c2cn[nH]c2n1	1.3
CCN1CCN(Cc2ccc(NC(=O)c3ccc(C)c(Oc4ccnc5[nH]ccc45)c3)cc2C(F)(F)F)CC1	11

Biological target: LATS1 (human) (UniProt O95835)
Assay: KINOMEscan competition binding
Details: compound 10.0 µM

Structure (SMILES)	kinase still bound, per cent of control [%]
CCN1CCN(Cc2ccc(NC(=O)c3ccc(C)c(/C=C/c4cnc(Nc5cc(N6CCNCC6)nc(C)n5)cn4)c3)cc2C(F)(F)F)CC1	55
COc1cc(N2CCC(N3CCN(C)CC3)CC2)ccc1Nc1ncc(Cl)c(Nc2ccccc2S(=O)(=O)C(C)C)n1	32
CCOc1cc(N2CCC(N3CCCCC3)CC2)ccc1Nc1nc(Nc2ccccc2S(=O)(=O)C(C)C)c2cn[nH]c2n1	100

Biological target: MAP4K3 (human) (UniProt Q8IVH8)
Assay: KINOMEscan competition binding
Details: compound 10.0 µM

Structure (SMILES)	kinase still bound, per cent of control [%]
CCN1CCN(Cc2ccc(NC(=O)c3ccc(C)c(/C=C/c4cnc(Nc5cc(N6CCNCC6)nc(C)n5)cn4)c3)cc2C(F)(F)F)CC1	0.9
COc1cc(N2CCC(N3CCN(C)CC3)CC2)ccc1Nc1ncc(Cl)c(Nc2ccccc2S(=O)(=O)C(C)C)n1	2.5
CCOc1cc(N2CCC(N3CCCCC3)CC2)ccc1Nc1nc(Nc2ccccc2S(=O)(=O)C(C)C)c2cn[nH]c2n1	10
CCN1CCN(Cc2ccc(NC(=O)c3ccc(C)c(Oc4ccnc5[nH]ccc45)c3)cc2C(F)(F)F)CC1	18
